# Target: T1, CGRP receptor (SK-N-MC cell membranes) (Homo sapiens, UniProt O60894+Q16602)
# T1 construct: endogenous in cells; host or cells: SK-N-MC cells (membrane homogenate)
# Assay: CGRP Binding Assay ([125I]-CGRP radioligand binding, SK-N-MC homogenate)
# Details: not given
# Method: Tissue Culture. SK-N-MC cells were grown at 37° C. in 5% CO2 as a monolayer in medium consisting of MEM with Earle's salts and L-glutamine (Gibco) supplemented with 10% fetal bovine serum (Gibco).
# Cell Pellets. […] The cells were transferred from plates to polypropylene tubes (16×100 mm) and homogenized using a polytron. Homogenates were centrifuged at 32,000×g for 30 min. The pellets were resuspended in cold hypotonic lysis buffer with 0.1% mammalian protease inhibitor cocktail (Sigma) and assayed for protein concentration. The SK-N-MC homogenate was then aliquoted and stored at −80° C. until needed.
# Radioligand Binding Assay. The compounds of invention were solubilized and carried through serial dilutions using 100% DMSO. Aliquots from the compound serial dilutions were further diluted 25 fold into assay buffer (50 mM Tris-Cl pH 7.5, 5 mM MgCl2, 0.005% Triton X-100) and transferred (volume 50 μl) into 96 well assay plates. […] SK-N-MC pellets were thawed, diluted in assay buffer with fresh 0.1% mammalian protease inhibitor cocktail (Sigma), and homogenized again. SK-N-MC homogenate (5 μg/well) was added in a volume of 100 μl. The assay plates were then incubated at room temperature for 2 h. Assays were stopped by addition of excess cold wash buffer (20 mM Tris-Cl pH 7.5, 0.1% BSA) immediately followed by filtration over glass fiber filters (Whatman GF/B) previously soaked in 0.5% PEI. Non-specific binding was defined with 1 μM beta-CGRP. Protein bound radioactivity was determined using a gamma or scintillation counter.
# T1 sequence (Q16602 23-461): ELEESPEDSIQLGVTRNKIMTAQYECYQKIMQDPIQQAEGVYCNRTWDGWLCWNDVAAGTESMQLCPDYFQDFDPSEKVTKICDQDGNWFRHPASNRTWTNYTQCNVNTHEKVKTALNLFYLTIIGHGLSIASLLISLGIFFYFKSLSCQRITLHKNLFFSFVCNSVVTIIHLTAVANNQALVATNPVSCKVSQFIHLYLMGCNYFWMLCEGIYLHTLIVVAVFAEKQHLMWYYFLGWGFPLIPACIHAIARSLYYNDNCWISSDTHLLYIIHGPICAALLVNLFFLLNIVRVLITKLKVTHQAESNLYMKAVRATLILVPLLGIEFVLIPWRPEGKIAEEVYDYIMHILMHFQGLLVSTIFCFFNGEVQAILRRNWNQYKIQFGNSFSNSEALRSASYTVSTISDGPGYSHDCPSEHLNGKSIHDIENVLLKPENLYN
# T1 sequence (O60894 27-148): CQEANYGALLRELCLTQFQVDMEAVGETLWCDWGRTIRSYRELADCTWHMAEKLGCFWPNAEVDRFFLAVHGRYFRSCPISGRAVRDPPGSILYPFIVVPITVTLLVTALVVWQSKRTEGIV
row,Structure (SMILES),IC50 [nM]
1,"O=C1Nc2ccccc2C2(CCN(C(=O)CC(Cc3ccc4[nH]ncc4c3)C(=O)N3CCC4(CC3)OCCO4)CC2)O1 (racemic) [Example 80, (±)-1-(1,4-Dioxa-8-aza-spiro[4.5]dec-8-yl)-2-(1H-indazol-5-ylmethyl)-4-[1′,2′-dihydro-2′-oxospiro-[4H-3′,1-benzoxazine-4,4′-piperidinyl]-butane-1,4-dione]",100 to 1000

# Same assay, conditions: displacement of [125I]-CGRP, SK-N-MC homogenate; read-out: CGRP binding IC50
row,Structure (SMILES),IC50 [nM]
1,"O=C(NC(CN1CCC(O)CC1)C(=O)N1CCC(N2CCCCC2)CC1)N1CCC(N2Cc3ccccc3NC2=O)CC1 (racemic) [Example 53, (±)-4-(2-Oxo-1,4-dihydro-2H-quinazolin-3-yl)-piperidine-1-carboxylic acid[2-[1,4′]bipiperidinyl-1′-yl-1-(4-hydroxy-piperidin-1-ylmethyl)-2-oxo-ethyl]-amide]",> 1000
2,"COC(=O)C(CN1Cc2cn[nH]c2C(C)(C)C1)NC(=O)N1CCC(N2Cc3ccccc3NC2=O)CC1 (racemic) [Example 55, (±)-3-(7,7-Dimethyl-1,4,6,7-tetrahydro-pyrazolo[4,3-c]pyridin-5-yl)-2-{[4-(2-oxo-1,4-dihydro-2H-quinazolin-3-yl)-piperidine-1-carbonyl]-amino}-propionic acid methyl ester]",100 to 1000
3,"COc1ccc(CC(NC(=O)N2CCC(N3Cc4ccccc4NC3=O)CC2)C(=O)N2CCC(N3CCCCC3)CC2)cn1 (racemic) [Example 57, (±)-4-(2-Oxo-1,4-dihydro-2H-quinazolin-3-yl)-piperidine-1-carboxylic acid[2-[1,4′]bipiperidinyl-1′-yl-1-(6-methoxy-pyridin-3-ylmethyl)-2-oxo-ethyl]-amide]",100 to 1000
4,"COc1ncc(CC(NC(=O)N2CCC(N3Cc4ccccc4NC3=O)CC2)C(=O)N2CCC(N3CCCCC3)CC2)cn1 (racemic) [Example 58, (±)-4-(2-Oxo-1,4-dihydro-2H-quinazolin-3-yl)-piperidine-1-carboxylic acid[2-[1,4′]bipiperidinyl-1′-yl-1-(2-methoxy-pyrimidin-5-ylmethyl)-2-oxo-ethyl]-amide]",> 1000
5,"O=C(NC(Cc1ccc(OCc2ccccc2)nc1)C(=O)N1CCC(N2CCCCC2)CC1)N1CCC(N2Cc3ccccc3NC2=O)CC1 (racemic) [Example 59, (±)-4-(2-Oxo-1,4-dihydro-2H-quinazolin-3-yl)-piperidine-1-carboxylic acid[1-(6-benzyloxy-pyridin-3-ylmethyl)-2-[1,4′]bipiperidinyl-1′-yl-2-oxo-ethyl]-amide]",100 to 1000
6,"O=C(NC(Cc1ccc(=O)[nH]c1)C(=O)N1CCC(N2CCCCC2)CC1)N1CCC(N2Cc3ccccc3NC2=O)CC1 (racemic) [Example 60, (±)-4-(2-Oxo-1,4-dihydro-2H-quinazolin-3-yl)-piperidine-1-carboxylic acid[2-[1,4′]bipiperidinyl-1′-yl-2-oxo-1-(6-oxo-1,6-dihydro-pyridin-3-ylmethyl)-ethyl]-amide]",100 to 1000
7,"COC(=O)C(CC(=O)N1CCC2(CC1)OC(=O)Nc1ccccc12)Cc1cc(C)c2[nH]ncc2c1 (racemic) [Example 66, (±)-2-(7-Methyl-1H-indazol-5-ylmethyl)-4-oxo-4-[1′,2′-dihydro-2′-oxospiro-[4H-3′,1-benzoxazine-4,4′-piperidinyl]-butyric acid methyl ester]",100 to 1000
8,"O=C(C[C@H](Nc1ccc2[nH]ncc2c1)C(=O)N1CCC(N2CCCCC2)CC1)N1CCC(N2Cc3ccccc3NC2=O)CC1 (racemic) [Example 201, (±)-1-[1,4′]Bipiperidinyl-1′-yl-2-(1H-indazol-5-ylamino)-4-[4-(2-oxo-1,4-dihydro-2H-quinazolin-3-yl)-piperidin-1-yl]-butane-1,4-dione]",100 to 1000
9,"COC(=O)C(Cc1cc(C)c2[nH]ncc2c1)NC(=O)N1CCC2(CC1)NC(=O)Nc1ccccc12 (stereo not shown) [Example 13, 3-(7-Methyl-1H-indazol-5-yl)-2-[2′,3′-dihydro-2′-oxospiro-(piperidine-4,4′-(1H)-quinazoline)carbonylamino]-propionic acid methyl ester]",100 to 1000
10,"COC(=O)C(Cc1cc(C)c2[nH]ncc2c1)NC(=O)N1CCC2(CC1)OC(=O)Nc1ccccc12 (stereo not shown) [Example 14, 3-(7-Methyl-1H-indazol-5-yl)-2-(1,2-dihydro-2-oxospiro-4H-3,1-dihydro-benzoxazine-4′4-piperidine-carbonylamino)-propionic acid methyl ester]",> 1000
11,CCCCCCCN1CCN(C(=O)C(Cc2ccc3[nH]ncc3c2)NC(=O)N2CCC(N3Cc4ccccc4NC3=O)CC2)CC1 (stereo not shown) [Example 40b],10 to 100
12,CCCCN1CCN(C(=O)C(Cc2ccc3[nH]ncc3c2)NC(=O)N2CCC(N3Cc4ccccc4NC3=O)CC2)CC1 (stereo not shown) [Example 40c],> 1000
13,CCCN1CCN(C(=O)C(Cc2ccc3[nH]ncc3c2)NC(=O)N2CCC(N3Cc4ccccc4NC3=O)CC2)CC1 (stereo not shown) [Example 40d],100 to 1000
14,O=C(NC(Cc1ccc2[nH]ncc2c1)C(=O)N1CCN(Cc2ccco2)CC1)N1CCC(N2Cc3ccccc3NC2=O)CC1 (stereo not shown) [Example 40e],> 1000
15,CCCCC(CC)CN1CCN(C(=O)C(Cc2ccc3[nH]ncc3c2)NC(=O)N2CCC(N3Cc4ccccc4NC3=O)CC2)CC1 (stereo not shown) [Example 40f],> 1000
16,O=C(NC(Cc1ccc2[nH]ncc2c1)C(=O)N1CCN(Cc2ccc[nH]2)CC1)N1CCC(N2Cc3ccccc3NC2=O)CC1 (stereo not shown) [Example 40g],> 1000
17,CN(C)/C=C/CN1CCN(C(=O)C(Cc2ccc3[nH]ncc3c2)NC(=O)N2CCC(N3Cc4ccccc4NC3=O)CC2)CC1 (stereo not shown) [Example 40h],> 1000
18,CCC(CN1CCN(C(=O)C(Cc2ccc3[nH]ncc3c2)NC(=O)N2CCC(N3Cc4ccccc4NC3=O)CC2)CC1)C(C)C (stereo not shown) [Example 40i],10 to 100
19,O=C(NC(Cc1ccc2[nH]ncc2c1)C(=O)N1CCN(C/C=C/c2ccccc2)CC1)N1CCC(N2Cc3ccccc3NC2=O)CC1 (stereo not shown) [Example 40j],> 1000
20,CN1CCN(C(=O)C(Cc2ccc3[nH]ncc3c2)NC(=O)N2CCC(N3Cc4ccccc4NC3=O)CC2)CC1 (stereo not shown) [Example 40k],> 1000
21,"Cc1cc(CC(NC(=O)N2CCC(N3Cc4ccccc4NC3=O)CC2)C(=O)OC2CCCCC2)cc2cn[nH]c12 (stereo not shown) [Example 41a, 3-(7-Methyl-1H-indazol-5-yl)-2-{[4-(2-oxo-1,4-dihydro-2H-quinazolin-3-yl)-piperidine-1-carbonyl]-amino}-propionic acid cyclohexyl ester]",10 to 100
22,"Cc1cc(CC(NC(=O)N2CCC(N3Cc4ccccc4NC3=O)CC2)C(=O)OC2CCN(Cc3ccccc3)CC2)cc2cn[nH]c12 (stereo not shown) [Example 41b, 3-(7-Methyl-1H-indazol-5-yl)-2-{[4-(2-oxo-1,4-dihydro-2H-quinazolin-3-yl)-piperidine-1-carbonyl]-amino}-propionic acid 1-benzyl-piperidin-4-yl ester]",< 10
23,"Cc1cc(CC(NC(=O)N2CCC(N3Cc4ccccc4NC3=O)CC2)C(=O)OC2CCN(C)CC2)cc2cn[nH]c12 (stereo not shown) [Example 41c, 3-(7-Methyl-1H-indazol-5-yl)-2-{[4-(2-oxo-1,4-dihydro-2H-quinazolin-3-yl)-piperidine-1-carbonyl]-amino}-propionic acid 1-methyl-piperidin-4-yl ester]",< 10
24,"Cc1cc(CC(NC(=O)N2CCC(N3Cc4ccccc4NC3=O)CC2)C(=O)OC2CCC(c3ccccc3)CC2)cc2cn[nH]c12 (stereo not shown) [Example 41d, 3-(7-Methyl-1H-indazol-5-yl)-2-{[4-(2-oxo-1,4-dihydro-2H-quinazolin-3-yl)-piperidine-1-carbonyl]-amino}-propionic acid 4-phenyl-cyclohexyl ester]",10 to 100

# From patent US7842808B2, “Anti-migraine spirocycles” (Bristol-Myers Squibb Company, priority 2002, dated 2010)
